# Results as given in PubChem BioAssay (NCI).
#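 In this assay, cells in 96-well plates receive the compound at five concentrations for 48 hours. Endpoints are linearly interpolated between the surrounding concentrations. Definition used: TGI = concentration required for complete inhibition of growth.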
# Tested on: P388/ADR leukemia
# Assay: NCI tumour cell line growth inhibition, 48 h
row,Structure (SMILES),TGI
1,CNNCc1ccc(C(=O)NC(C)C)cc1,> 500 µM
2,CC(=O)O[C@H]1C(=O)O[C@@H]2C[C@H]3C(C)=CC(=O)[C@@H](O)[C@]3(C)[C@H]3[C@@]4(O)OC[C@]32[C@@H]1[C@@H](C)[C@H]4O,7.51 µM
